Source: paper PMC12002112, “NMR Solution Structure of the N‐Terminal GSPII Domain from the Thermus Thermophilus Traffic ATPase PilF and Reconstruction of its c‐di‐GMP Binding Capability” (Chembiochem, 2025)
“And” between values parts separate entries of the source, which are not always exact repeats. Equal values may be shown once.

Tests used:
[1] = molecular target: T1, PilF1–889 (full‐length PilF) (Thermus thermophilus, UniProt Q5SLC9); test: ITC c‐di‐GMP binding, full‐length PilF; settings: 20 °C
T1 sequence (Q5SLC9 1-889): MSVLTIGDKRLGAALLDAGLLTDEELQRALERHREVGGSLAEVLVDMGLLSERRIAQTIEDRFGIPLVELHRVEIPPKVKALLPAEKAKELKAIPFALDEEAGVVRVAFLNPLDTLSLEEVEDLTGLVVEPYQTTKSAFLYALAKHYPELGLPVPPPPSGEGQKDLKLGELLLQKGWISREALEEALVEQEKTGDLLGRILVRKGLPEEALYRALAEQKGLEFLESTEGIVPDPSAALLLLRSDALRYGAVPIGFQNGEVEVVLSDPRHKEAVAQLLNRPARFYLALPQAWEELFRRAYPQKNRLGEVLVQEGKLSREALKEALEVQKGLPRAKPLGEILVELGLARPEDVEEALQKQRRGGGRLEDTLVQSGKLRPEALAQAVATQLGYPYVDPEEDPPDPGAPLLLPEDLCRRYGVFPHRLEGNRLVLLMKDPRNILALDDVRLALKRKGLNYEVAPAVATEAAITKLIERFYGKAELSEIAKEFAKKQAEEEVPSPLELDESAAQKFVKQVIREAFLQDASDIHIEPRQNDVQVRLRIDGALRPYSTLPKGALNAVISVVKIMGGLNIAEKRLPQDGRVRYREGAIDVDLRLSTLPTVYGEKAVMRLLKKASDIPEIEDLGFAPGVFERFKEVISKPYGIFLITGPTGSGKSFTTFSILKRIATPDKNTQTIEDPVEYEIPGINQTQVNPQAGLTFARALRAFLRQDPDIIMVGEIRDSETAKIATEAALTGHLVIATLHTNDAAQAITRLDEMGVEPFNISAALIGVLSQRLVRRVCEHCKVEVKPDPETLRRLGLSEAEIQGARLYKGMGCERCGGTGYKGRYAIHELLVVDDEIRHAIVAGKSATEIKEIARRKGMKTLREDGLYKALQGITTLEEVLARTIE

[2] = tested on: PilF1–154 (GSPII‐A); test: ITC c‐di‐GMP binding, isolated GSPII‐A domain; design: species or system Thermus thermophilus; settings: isolated PilF1–154
Protocol: (§1) The c‐di‐GMP binding capabilities of the various PilF1–154, PilF1–65 and PilF9–65 constructs were characterized by isothermal titration calorimetry (ITC) measurements in three independent titrations for each construct with detectable binding to c‐di‐GMP. All ITC‐measurements were carried out in 50 mM Tris‐HCl pH 7.5, 200 mM sodium chloride, 1 mM β‐mercaptoethanol at 20 °C using a MicroCal iTC200 instrument (Malvern Pananalytical, UK). In total 40 μl c‐di‐GMP was titrated to 270 μl protein after an initial delay of 120 s in 20 injections while stirring the sample with 750 rpm. The first injection of 0.2 μl c‐di‐GMP in 0.4 s was followed by 19 successive injections of 2 μl in 4 s separated by a 180 s delay using a reference power of 11 μcal^−1. The feedback mode was set to high. Protein and c‐di‐GMP concentrations ranged from 30 μM to 100 μM and 300 μM to 1000 μM, respectively, and were adjusted to the respective binding affinities of the corresponding constructs to optimize measurement precision. Processing of the thermograms was carried out with Origin 7.0 (OriginLab) using a one‐site binding model. An overview of all ITC measurements is given in Supplementary Table 1.

[3] = tested on: PilF1–65 F63Y; test: ITC c‐di‐GMP binding, N‐terminal subdomain; design: species or system Thermus thermophilus
Protocol: as §1

[4] = molecular target: T2, PilF1–65 F63Y H33Q S39R A41G I55L I59L R62Q (PilF1–65 F63Y mut6) (Thermus thermophilus, UniProt Q5SLC9, A41G/F63Y/H33Q/I55L/I59L/R62Q/S39R); test: ITC c‐di‐GMP binding, PilF1–65 F63Y mut6
T2 sequence (Q5SLC9 1-65 H33Q/S39R/A41G/I55L/I59L/R62Q/F63Y): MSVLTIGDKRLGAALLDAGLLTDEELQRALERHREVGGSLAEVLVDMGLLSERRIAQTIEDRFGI
Protocol: as §1

[5] = molecular target: T3, PilF9–65 F63Y H33Q S39R A41G I55L I59L R62Q (PilF9–65 F63Y mut6) (Thermus thermophilus, UniProt Q5SLC9, A41G/F63Y/H33Q/I55L/I59L/R62Q/S39R); test: ITC c‐di‐GMP binding, PilF9–65 F63Y mut6
T3 sequence (Q5SLC9 9-65 H33Q/S39R/A41G/I55L/I59L/R62Q/F63Y): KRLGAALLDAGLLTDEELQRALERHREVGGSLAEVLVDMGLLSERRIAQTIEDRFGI
Protocol: as §1

[6] = molecular target: T4, PilF9–65 F63Y H33Q S39R A41G R62Q (Thermus thermophilus, UniProt Q5SLC9, A41G/F63Y/H33Q/R62Q/S39R); test: ITC c‐di‐GMP binding, PilF9–65 F63Y H33Q S39R A41G R62Q; settings: 20 °C
T4 sequence (Q5SLC9 9-65 H33Q/S39R/A41G/R62Q/F63Y): T3 sequence (Q5SLC9 9-65 H33Q/S39R/A41G/I55L/I59L/R62Q/F63Y)
Protocol: as §1

[7] = molecular target: T5, PilF9–65 F63Y H33Q S39R R62Q (Thermus thermophilus, UniProt Q5SLC9, F63Y/H33Q/R62Q/S39R); test: ITC c‐di‐GMP binding, PilF9–65 F63Y H33Q S39R R62Q; settings: 20 °C
T5 sequence (Q5SLC9 9-65 H33Q/S39R/R62Q/F63Y): T3 sequence (Q5SLC9 9-65 H33Q/S39R/A41G/I55L/I59L/R62Q/F63Y)
Protocol: as §1

[8] = tested on: PilF9–65 F63Y H33Q R62Q; test: ITC c‐di‐GMP binding, PilF9–65 F63Y H33Q R62Q; design: species or system Thermus thermophilus; settings: S39 reintroduced
Protocol: as §1

[9] = tested on: PilF1–154; test: NMR titration with c‐di‐GMP, PilF1–154; format: binding, Thermus thermophilus; settings: 10 equivalents of c‐di‐GMP, 45 °C
Protocol: (§2) For NMR experiments, all PilF1–154, PilF1–65 and PilF9–65 samples were prepared in a buffer containing 50 mM BisTris‐HCl pH 5.8, 200 mM NaCl, 1 mM β‐mercaptoethanol with the addition of 5 % (v/v) D2O. 200 μM 2,2‐dimethyl‐2‐silapentane‐5‐sulfonic acid (DSS) was used to directly reference the ^1H chemical shifts internally. With the appropriate conversion factors, the heteronuclear ^13C, ^15N and ^31P chemical shifts were referenced indirectly.[73] All spectra were processed and referenced with Bruker TopSpin™ versions 3.5 and 4.0.7. Chemical shifts were assigned in CARA.[74] NMR‐spectra were acquired on Bruker AVANCE 600, 700, 800, 900 and 950 MHz spectrometers equipped with cryogenic triple resonance probes at 45 °C for PilF1–154 constructs and at 20 °C for the PilF1–65 and the PilF9–65 constructs.
(§3) NMR titration experiments were carried out as ligand binding assays with uniformly ^15N labeled protein samples from 50 μM to 100 μM and unlabeled c‐di‐GMP. A series of ^15N‐HSQC, ^1H,^15N‐SOFAST‐HMQC or ^15N‐BEST‐TROSY‐HSQC spectra were recorded with increasing c‐di‐GMP concentrations (up to 1.4 mM) and chemical shift changes were evaluated with TopSpin™ 4.0.7.

[10] = tested on: PilF1–154 H33Q S39R A41G I55L I59L R62Q; test: NMR titration with c‐di‐GMP, MshEN‐like PilF1–154 construct; format: binding, Thermus thermophilus; settings: 15 equivalents of c‐di‐GMP
Protocol: as §2, §3

[11] = tested on: PilF1–65 F63Y; test: NMR titration with c‐di‐GMP, PilF1–65 F63Y; format: binding, Thermus thermophilus
Protocol: as §2, §3

[12] = molecular target: T2, PilF1–65 F63Y H33Q S39R A41G I55L I59L R62Q (PilF1–65 F63Y mut6); test: NMR titration with c‐di‐GMP, PilF1–65 F63Y mut6; format: binding; settings: high excess of ligand (10fold), 20 °C
Protocol: as §2, §3

[13] = molecular target: T5, PilF9–65 F63Y H33Q S39R R62Q; test: NMR titration with c‐di‐GMP, PilF9–65 F63Y H33Q S39R R62Q; format: binding; settings: high excess of the ligand (15fold), 20 °C
Protocol: as §2, §3

[14] = molecular target: MshEN; design: method as in PMID 27578558; settings: monomeric c‐di‐GMP; read-out: KD (affinity) for MshEN; cited from earlier work

For `Nc1nc2c(ncn2C2OC3COP(=O)(O)OC4C(COP(=O)(O)OC3C2O)OC(n2cnc3c(=O)[nH]c(N)nc32)C4O)c(=O)[nH]1` (centres unmarked) [c‐di‐GMP, 3’→5’ cyclic dimeric guanosine monophosphate], the “ΔH (binding event 1)” value ([1]; event 1) was -11.763 ± 0.78 kcal/mol, the “ΔS (binding event 1)” value ([1]; event 1) was -10.4 ± 2.7 cal/mol/deg and the “ΔH (binding event 2)” value ([1]; event 2) was -15.683 ± 0.97 kcal/mol. The “ΔS (binding event 2)” value ([1]; event 2) was -16.5 ± 2.2 cal/mol/deg, the Kd ([1]; pH 7.5, PilF1–889, binding event 1, read-out: KD1 (first binding event)) was 324 nM and the “N (binding event 1)” value ([1]; stoichiometry, event 1) was 0.72 ± 0.1. The “N (binding event 2)” value ([1]; stoichiometry, event 2) was 0.59 ± 0.03, the “c‐di‐GMP binding in ITC” value [2] was “did not show any sign of c‐di‐GMP binding” and the “c‐di‐GMP binding in ITC” value [3] was “not detectable”. For the same molecule, the N ([4]; ITC, 20 °C) was 0.6 ± 0.2, the ΔH ([4]; ITC, 20 °C) was -1.342 ± 0.513 kcal/mol and the ΔS ([4]; ITC, 20 °C) was 17.1 ± 2.3 cal/mol/deg. The Kd ([4]; ITC, 20 °C, pH 7.5, PilF1–65 F63Y mut6) was 13000 ± 2000 nM, the “difference in the free energy of binding vs MshEN” value ([4]; at 20° C) was ~ 1.9 kcal/mol and the “difference in the free energy of binding vs N‐terminal subdomain (residue 1–62) of MshEN” value ([4]; at 20° C) was ~2.3 kcal/mol. It also gave an N ([5]; ITC, 20 °C) of 1.2 ± 0.1, a ΔH ([5]; ITC, 20 °C) of -12.953 ± 0.441 kcal/mol and a ΔS ([5]; ITC, 20 °C) of -17.9 ± 1.4 cal/mol/deg. The Kd ([5]; ITC, 20 °C, pH 7.5, PilF9–65 F63Y mut6) was 695 ± 42 nM, the “difference in the free energy of binding vs PilF1–65 F63Y mut6” value ([5]; at 20° C) was 1.6 kcal/mol and the N [6] was 0.8 ± 0.1. It also gave a ΔH [6] of -10.127 ± 0.499 kcal/mol, a ΔS [6] of -6.4 ± 1.7 cal/mol/deg and a Kd ([6]; pH 7.5, PilF9–65 F63Y H33Q S39R A41G R62Q) of 1800 ± 300 nM. For the same molecule, the N [7] was 0.7 ± 0.1, the ΔH [7] was -9.574 ± 0.243 kcal/mol and the ΔS [7] was -3.6 ± 0.7 cal/mol/deg. The Kd ([7]; pH 7.5, PilF9–65 F63Y H33Q S39R R62Q) was 19000 ± 6000 nM, the “c‐di‐GMP binding activity in ITC” value [8] was “complete loss of c‐di‐GMP binding activity” and the “chemical shift changes on adding c‐di‐GMP” value [9] was “does not cause any chemical shift changes”. For the same molecule, the “c‐di‐GMP binding in NMR‐titration” value [10] was “no c‐di‐GMP binding”, the “c‐di‐GMP binding in NMR titration” value [11] was “not detectable” and the “chemical shift changes on adding c‐di‐GMP” value [12] was “large chemical shift changes”. For the same molecule, the “c‐di‐GMP binding in NMR titration” value [13] was “saturated ligand binding” and the Kd [14] was 500 nM and ~500 nM.
